Results on 31 molecules are retold here after patent US12435060B2, “Acylamino bridged heterocyclic compound, and composition and application thereof” (BEIJING SCITECH-MQ PHARMACEUTICALS LIMITED, priority 2019, dated 2025).

A value given as a limit tells only on which side of the number the result lay.

The test system of this test is HT29 cells. The experiment in a line: Inhibition of cell necrosis (CCK8 method), induced programmed necrosis of HT29 cells. Format: cell-based. Particulars: Homo sapiens, HT-29; rescue from necrosis induced by TNF-α 20 ng/mL, AT-406 1 μM, Z-VAD-FMK 20 μM; 16-20 hours; CCK-8, OD 450 nm. The method, boiled down: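 Rescue from programmed necrosis was scored by CCK-8 absorbance at 450 nm after 16-20 h of TNF-α (20 ng/mL), AT-406 (1 μM) and Z-VAD-FMK (20 μM) at 37 °C, 5% CO2. HT29 cells had received compound 30 min earlier across nine 4-fold dilutions (top 25000 nM final). IC50 came from % inhibition relative to uninduced and induced-only wells.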
(In general: Formazan colour is commonly taken as a measure of viable cells.)
As a reminder, the IC50 is the concentration that inhibits the measured activity by half. Low values mean greater potency, high ones weaker potency. With `COCCOc1ccc(Cl)c(-c2ccnc(NC(=O)c3nnc(CC4CCCC4)[nH]3)c2)c1` [Example 381, N-(4-(2-chloro-5-(2-methoxyethoxy)phenyl)pyridin-2-yl)-5-(cyclopentylmethyl)-4H-1,2,4-triazole-3-carboxamide], the IC50 was not above 100 nM.
Regarding `COCCOc1ccc(Cl)c(-c2ccnc(NC(=O)c3nnc(CC4CCCCC4)[nH]3)c2)c1` [Example 382, N-(4-(2-chloro-5-(2-methoxyethoxy)phenyl)pyridin-2-yl)-5-(cyclohexylmethyl)-4H-1,2,4-triazole-3-carboxamide], the IC50 is not above 100 nM.
The molecule `CCOCCOc1ccc(Cl)c(-c2ccnc(NC(=O)c3nnc(Cc4ccccc4)[nH]3)c2)c1` [Example 383, 5-benzyl-N-(4-(2-chloro-5-(2-ethoxyethoxy)phenyl)pyridin-2-yl)-4H-1,2,4-triazole-3-carboxamide] returned an IC50 not above 100 nM.
`CCOCCOc1ccc(Cl)c(-c2ccnc(NC(=O)c3nnc(Cc4ccccc4F)[nH]3)c2)c1` [Example 384, 5-(2-fluorobenzyl)-N-(4-(2-chloro-5-(2-ethoxyethoxy)phenyl)pyridin-2-yl)-4H-1,2,4-triazole-3-carboxamide] displayed an IC50 not above 100 nM.
For the molecule `CCOCCOc1ccc(Cl)c(-c2ccnc(NC(=O)c3nnc(CC4CCCC4)[nH]3)c2)c1` [Example 385, N-(4-(2-chloro-5-(2-ethoxyethoxy)phenyl)pyridin-2-yl)-5-(cyclopentylmethyl)-4H-1,2,4-triazole-3-carboxamide], the IC50 was not above 100 nM.
For `CCOCCOc1ccc(Cl)c(-c2ccnc(NC(=O)c3nnc(CC4CCCCC4)[nH]3)c2)c1` [Example 386, N-(4-(2-chloro-5-(2-ethoxyethoxy)phenyl)pyridin-2-yl)-5-(cyclohexylmethyl)-4H-1,2,4-triazole-3-carboxamide] the value was not above 100 nM; for `CC(C)OCCOc1ccc(Cl)c(-c2ccnc(NC(=O)c3nnc(Cc4ccccc4)[nH]3)c2)c1` [Example 387, 5-benzyl-N-(4-(2-chloro-5-(2-isopropoxyethoxy)phenyl)pyridin-2-yl)-4H-1,2,4-triazole-3-carboxamide], not above 100 nM.
Regarding `CC(C)OCCOc1ccc(Cl)c(-c2ccnc(NC(=O)c3nnc(Cc4ccccc4F)[nH]3)c2)c1` [Example 388, 5-(2-fluorobenzyl)-N-(4-(2-chloro-5-(2-isopropoxyethoxy)phenyl)pyridin-2-yl)-4H-1,2,4-triazole-3-carboxamide], the IC50 was not above 100 nM.
With `CC(C)OCCOc1ccc(Cl)c(-c2ccnc(NC(=O)c3nnc(CC4CCCC4)[nH]3)c2)c1` [Example 389, N-(4-(2-chloro-5-(2-isopropoxyethoxy)phenyl)pyridin-2-yl)-5-(cyclopentylmethyl)-4H-1,2,4-triazole-3-carboxamide] the figure was not above 100 nM; with `CC(C)OCCOc1ccc(Cl)c(-c2ccnc(NC(=O)c3nnc(CC4CCCCC4)[nH]3)c2)c1` [Example 390, N-(4-(2-chloro-5-(2-isopropoxyethoxy)phenyl)pyridin-2-yl)-5-(cyclohexylmethyl)-4H-1,2,4-triazole-3-carboxamide], not above 100 nM; with `CC(C)(C)OCCOc1ccc(Cl)c(-c2ccnc(NC(=O)c3nnc(Cc4ccccc4)[nH]3)c2)c1` [Example 391, 5-benzyl-N-(4-(5-(2-(tert-butoxy)ethoxy)-2-chlorophenyl)pyridin-2-yl)-4H-1,2,4-triazole-3-carboxamide], not above 100 nM.
Take `CC(C)(C)OCCOc1ccc(Cl)c(-c2ccnc(NC(=O)c3nnc(Cc4ccccc4F)[nH]3)c2)c1` [Example 392, 5-(2-fluorobenzyl)-N-(4-(5-(2-(tert-butoxy)ethoxy)-2-chlorophenyl)pyridin-2-yl)-4H-1,2,4-triazole-3-carboxamide]: the half-maximal inhibitory concentration (IC50) is not above 100 nM.
With `CC(C)(C)OCCOc1ccc(Cl)c(-c2ccnc(NC(=O)c3nnc(CC4CCCC4)[nH]3)c2)c1` [Example 393, N-(4-(5-(2-(tert-butoxy)ethoxy)-2-chlorophenyl)pyridin-2-yl)-5-(cyclopentylmethyl)-4H-1,2,4-triazole-3-carboxamide] the figure was not above 100 nM.
`CC(C)(C)OCCOc1ccc(Cl)c(-c2ccnc(NC(=O)c3nnc(CC4CCCCC4)[nH]3)c2)c1` [Example 394, N-(4-(5-(2-(tert-butoxy)ethoxy)-2-chlorophenyl)pyridin-2-yl)-5-(cyclohexylmethyl)-4H-1,2,4-triazole-3-carboxamide]: the IC50 was not above 100 nM.
The molecule `COCCCOc1ccc(Cl)c(-c2ccnc(NC(=O)c3nnc(Cc4ccccc4)[nH]3)c2)c1` [Example 395, 5-benzyl-N-(4-(2-chloro-5-(3-methoxypropoxy)phenyl)pyridin-2-yl)-4H-1,2,4-triazole-3-carboxamide] returned an IC50 not above 100 nM.
In turn, `COCCCOc1ccc(Cl)c(-c2ccnc(NC(=O)c3nnc(Cc4ccccc4F)[nH]3)c2)c1` [Example 396, 5-(2-fluorobenzyl)-N-(4-(2-chloro-5-(3-methoxypropoxy)phenyl)pyridin-2-yl)-4H-1,2,4-triazole-3-carboxamide] showed an IC50 not above 100 nM.
For `COCCCOc1ccc(Cl)c(-c2ccnc(NC(=O)c3nnc(CC4CCCC4)[nH]3)c2)c1` [Example 397, N-(4-(2-chloro-5-(3-methoxypropoxy)phenyl)pyridin-2-yl)-5-(cyclopentylmethyl)-4H-1,2,4-triazole-3-carboxamide] the value was not above 100 nM; for `COCCCOc1ccc(Cl)c(-c2ccnc(NC(=O)c3nnc(CC4CCCCC4)[nH]3)c2)c1` [Example 398, N-(4-(2-chloro-5-(3-methoxypropoxy)phenyl)pyridin-2-yl)-5-(cyclohexylmethyl)-4H-1,2,4-triazole-3-carboxamide], not above 100 nM; for `O=C(Nc1cc(-c2cc(OCC3CCOCC3)ccc2Cl)ccn1)c1nnc(Cc2ccccc2)[nH]1` [Example 399, 5-benzyl-N-(4-(2-chloro-5-((tetrahydro-2H-pyran-4-yl)methoxy)phenyl)pyridin-2-yl)-4H-1,2,4-triazole-3-carboxamide], not above 100 nM.
As to `O=C(Nc1cc(-c2cc(OCC3CCOCC3)ccc2Cl)ccn1)c1nnc(Cc2ccccc2F)[nH]1` [Example 400, 5-(2-fluorobenzyl)-N-(4-(2-chloro-5-((tetrahydro-2H-pyran-4-yl)methoxy)phenyl)pyridin-2-yl)-4H-1,2,4-triazole-3-carboxamide], the IC50 is not above 100 nM.
For `O=C(Nc1cc(-c2cc(OCC3CCOCC3)ccc2Cl)ccn1)c1nnc(CC2CCCC2)[nH]1` [Example 401, N-(4-(2-chloro-5-((tetrahydro-2H-pyran-4-yl)methoxy)phenyl)pyridin-2-yl)-5-(cyclopentylmethyl)-4H-1,2,4-triazole-3-carboxamide] the value was not above 100 nM; for `O=C(Nc1cc(-c2cc(OCC3CCOCC3)ccc2Cl)ccn1)c1nnc(CC2CCCCC2)[nH]1` [Example 402, N-(4-(2-chloro-5-((tetrahydro-2H-pyran-4-yl)methoxy)phenyl)pyridin-2-yl)-5-(cyclohexylmethyl)-4H-1,2,4-triazole-3-carboxamide], not above 100 nM; for `O=C(Nc1cc(-c2cc(OCCC3CCOCC3)ccc2Cl)ccn1)c1nnc(Cc2ccccc2)[nH]1` [Example 403, 5-benzyl-N-(4-(2-chloro-5-(2-(tetrahydro-2H-pyran-4-yl)ethoxy)phenyl)pyridin-2-yl)-4H-1,2,4-triazole-3-carboxamide], not above 100 nM.
`O=C(Nc1cc(-c2cc(OCCC3CCOCC3)ccc2Cl)ccn1)c1nnc(Cc2ccccc2F)[nH]1` [Example 404, N-(4-(2-chloro-5-(2-(tetrahydro-2H-pyran-4-yl)ethoxy)phenyl)pyridin-2-yl)-5-(2-fluorobenzyl)-4H-1,2,4-triazole-3-carboxamide] returned an IC50 not above 100 nM.
`O=C(Nc1cc(-c2cc(OCCC3CCOCC3)ccc2Cl)ccn1)c1nnc(CC2CCCC2)[nH]1` [Example 405, N-(4-(2-chloro-5-(2-(tetrahydro-2H-pyran-4-yl)ethoxy)phenyl)pyridin-2-yl)-5-(cyclopentylmethyl)-4H-1,2,4-triazole-3-carboxamide]: the IC50 is not above 100 nM.
Molecule `O=C(Nc1cc(-c2cc(OCCC3CCOCC3)ccc2Cl)ccn1)c1nnc(CC2CCCCC2)[nH]1` [Example 406, N-(4-(2-chloro-5-(2-(tetrahydro-2H-pyran-4-yl)ethoxy)phenyl)pyridin-2-yl)-5-(cyclohexylmethyl)-4H-1,2,4-triazole-3-carboxamide] showed an IC50 not above 100 nM.
In turn, `CC(C)(O)CCCOc1cc(F)c(Cl)c(-c2ccnc(NC(=O)c3nnc(Cc4ccccc4)[nH]3)c2)c1` [Example 407, 5-benzyl-N-(4-(2-chloro-3-fluoro-5-((4-hydroxy-4-methylpentyl)oxy)phenyl)pyridin-2-yl)-4H-1,2,4-triazole-3-carboxamide] showed an IC50 of more than 10000 nM.
Turning to `CC(C)(O)CCCOc1cc(F)c(Cl)c(-c2ccnc(NC(=O)c3nnc(Cc4ccccc4F)[nH]3)c2)c1` [Example 408, N-(4-(2-chloro-3-fluoro-5-((4-hydroxy-4-methylpentyl)oxy)phenyl)pyridin-2-yl)-5-(2-fluorobenzyl)-4H-1,2,4-triazole-3-carboxamide], the IC50 was more than 10000 nM.
`CC(C)(O)CCCOc1ccc(Cl)c(-c2cc(NC(=O)c3nnc(Cc4ccccc4F)[nH]3)ncc2F)c1` [Example 409] came in with an IC50 not above 100 nM.
Regarding `CC(C)(O)CCCOc1ccc(Cl)c(-c2cc(NC(=O)c3nnc(CC4CCCCC4)[nH]3)ncc2F)c1` [Example 410, N-(4-(2-chloro-5-((4-hydroxy-4-methylpentyl)oxy)phenyl)-5-fluoropyridin-2-yl)-5-(cyclohexylmethyl)-4H-1,2,4-triazole-3-carboxamide], the IC50 is not above 100 nM.
With `CC(C)(O)CCCOc1ccc(Cl)c(-c2cc(NC(=O)c3nnc(Cc4ccccc4F)[nH]3)ncc2Cl)c1` [Example 411, N-(5-chloro-4-(2-chloro-5-((4-hydroxy-4-methylpentyl)oxy)phenyl)pyridin-2-yl)-5-(2-fluorobenzyl)-4H-1,2,4-triazole-3-carboxamide], the IC50 was 100 to 1000 nM.
